Test results taken from US9409892B2, “4-hydroxy-isoquinoline compounds as HIF hydroxylase inhibitors” (FIBROGEN, INC., priority 2012, dated 2016).
Several values for one entry are separate records, joined by “and”; a condition that tells them apart may be missing. Equal entries are not always repeated. Where two headings read alike, the source gives them in different places.

Key:
[1] = biological target: PHD1 (EGLN2) (Homo sapiens (Human), UniProt Q96KS0); assay: HIF-PH assay (14CO2 capture), PHD1 enzyme inhibition; type: biochemical; conditions: for PHD2/PHD1 avg.: average of the ratios of multiple independent measurements
Sequence of PHD1 (EGLN2) (Q96KS0 whole entry): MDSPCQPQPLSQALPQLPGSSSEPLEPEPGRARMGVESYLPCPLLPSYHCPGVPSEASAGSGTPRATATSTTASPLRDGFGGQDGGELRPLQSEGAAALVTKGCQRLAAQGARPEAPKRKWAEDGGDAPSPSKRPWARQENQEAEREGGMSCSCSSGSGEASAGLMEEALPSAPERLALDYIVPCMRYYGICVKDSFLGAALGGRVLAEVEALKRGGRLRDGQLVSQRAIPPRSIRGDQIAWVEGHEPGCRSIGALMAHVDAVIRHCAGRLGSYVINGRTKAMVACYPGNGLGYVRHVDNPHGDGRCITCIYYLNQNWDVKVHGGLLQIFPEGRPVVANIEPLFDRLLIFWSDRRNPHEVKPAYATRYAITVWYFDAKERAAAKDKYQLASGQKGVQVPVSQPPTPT

[2] = biological target: PHD2 (EGLN1) (Homo sapiens (Human), UniProt Q9GZT9); assay: HIF-PH assay (14CO2 capture), PHD2 enzyme inhibition; type: biochemical; conditions: Table 1
Sequence of PHD2 (EGLN1) (Q9GZT9 whole entry): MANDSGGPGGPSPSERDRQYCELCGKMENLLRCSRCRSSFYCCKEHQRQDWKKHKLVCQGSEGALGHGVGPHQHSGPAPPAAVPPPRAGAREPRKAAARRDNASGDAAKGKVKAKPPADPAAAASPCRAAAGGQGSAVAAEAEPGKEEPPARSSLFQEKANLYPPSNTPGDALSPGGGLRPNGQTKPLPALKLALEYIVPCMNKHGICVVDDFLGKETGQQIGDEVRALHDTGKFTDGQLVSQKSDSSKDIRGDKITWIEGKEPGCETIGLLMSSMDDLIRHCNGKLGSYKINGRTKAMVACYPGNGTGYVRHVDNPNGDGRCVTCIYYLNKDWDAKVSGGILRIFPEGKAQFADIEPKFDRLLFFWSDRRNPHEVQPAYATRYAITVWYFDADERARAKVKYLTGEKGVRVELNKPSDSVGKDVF

[3] = Table 1, individual measurement, read-out: IC50 (μM) PHD1
[4] = Table 1, ratio of the IC50 of the compound for each enzyme
[5] = individual measurement, read-out: IC50 (μM) PHD2
[6] = Table 1, average of multiple independent measurements, read-out: IC50 (μM) PHD1 avg.
[7] = average of multiple independent measurements, read-out: IC50 (μM) PHD2 avg.

Compound | IC50 [1, 3] | PHD2/PHD1 [1, 4] | IC50 [2, 5] | IC50 [1, 6] [µM] | PHD2/PHD1 avg. ([1]; Table 1) | IC50 [2, 7] [µM] | PHD2/PHD1 ([1]; Table 2 comparative data, IC50 PHD2/IC50 PHD1)
Cc1ccccc1[C@H](CC(=O)O)NC(=O)c1nc(C#N)c2cc(Oc3ccccc3)ccc2c1O [Compound 171, 3-(S)-[(1-Cyano-4-hydroxy-7-phenoxy-isoquinoline-3-carbonyl)-amino]-3-o-tolyl-propionic acid] | 5.26 µM | 9 | 45.7 µM |  |  |  | 
N#Cc1nc(C(=O)NC2(CC(=O)O)CCC2)c(O)c2ccc(Oc3ccccc3)cc12 [Compound 106, {1-[(1-Cyano-4-hydroxy-7-phenoxy-isoquinoline-3-carbonyl)-amino]-cyclobutyl}-acetic acid] | 7.79 µM | 10 | 74.5 µM |  |  |  | 
CO[C@@H](CCNC(=O)c1nc(C#N)c2cc(Oc3ccccc3)ccc2c1O)C(=O)O [Compound 94, 4-[(1-Cyano-4-hydroxy-7-phenoxy-isoquinoline-3-carbonyl)-amino]-2-(S)-methoxy-butyric acid] | 0.31 µM | 7 | 2.18 µM |  |  |  | 
N#Cc1nc(C(=O)N[C@H]2CCC[C@H]2C(=O)O)c(O)c2ccc(Oc3ccccc3)cc12 (relative stereo) [Compound 33, cis-2-[(1-Cyano-4-hydroxy-7-phenoxy-isoquinoline-3-carbonyl)-amino]-cyclopentanecarboxylic acid] | 16.9 µM | 6 | 94.8 µM |  |  |  | 
O=C(O)CCNC(=O)c1nc(C(F)(F)F)c2cc(Oc3ccccc3)ccc2c1O [Compound 145, 3-[(4-Hydroxy-7-phenoxy-1-trifluoromethyl-isoquinoline-3-carbonyl)-amino]-propionic acid] | 18.6 µM | 5 | 101 µM |  |  |  | 
N#Cc1nc(C(=O)NCCC(=O)O)c(O)c2ccc(Oc3ccccc3)cc12 [Compound 10, 3-[(1-Cyano-4-hydroxy-7-phenoxy-isoquinoline-3-carbonyl)-amino]-propionic acid] | 0.24 µM | 5 | 1.33 µM |  |  |  | 5
CC(C)(CNC(=O)c1nc(C#N)c2cc(OC3CCCCC3)ccc2c1O)C(=O)O [Compound 156, 3-[(1-Cyano-7-cyclohexyloxy-4-hydroxy-isoquinoline-3-carbonyl)-amino]-2,2-dimethyl-propionic acid] | 1.49 µM | 16 | 23.5 µM |  |  |  | 
O=C(O)CCNC(=O)c1ncc2cc(NC(=O)NCc3ccccc3)ccc2c1O [Compound 133, 3-{[7-(3-Benzyl-ureido)-4-hydroxy-isoquinoline-3-carbonyl]-amino}-propionic acid] | 0.85 µM | 7 | 6.06 µM |  |  |  | 
N#Cc1nc(C(=O)NCC2(CC(=O)O)CCCCC2)c(O)c2ccc(Oc3ccccc3)cc12 [Compound 36, (1-{[(1-Cyano-4-hydroxy-7-phenoxy-isoquinoline-3-carbonyl)-amino]-methyl}-cyclohexyl)-acetic acid] | 5.93 µM | 10 | 56.6 µM |  |  |  | 
COc1ccc(CNc2ccc3c(O)c(C(=O)NCCCCC(=O)O)ncc3c2)cc1 [Compound 125, 5-{[4-Hydroxy-7-(4-methoxy-benzylamino)-isoquinoline-3-carbonyl]-amino}-pentanoic acid] | 7.92 µM | 20 | 158 µM |  |  |  | 
CN(C)C(=O)N[C@H](CCNC(=O)c1nc(C#N)c2cc(Oc3ccccc3)ccc2c1O)C(=O)O [Compound 54, (R)-4-(1-Cyano-4-hydroxy-7-phenoxyisoquinoline-3-carboxamido)-2-(3,3-dimethylureido)butanoic acid] | 1.81 µM | 6.1 | 11 µM |  |  |  | 
N#Cc1nc(C(=O)N[C@H](CC(=O)O)c2cccnc2)c(O)c2ccc(Oc3ccccc3)cc12 [Compound 176, 3-(R)-[(1-Cyano-4-hydroxy-7-phenoxy-isoquinoline-3-carbonyl)-amino]-3-pyridin-3-yl-propionic acid] | 4.08 µM | 6 | 24.6 µM |  |  |  | 
N#Cc1nc(C(=O)NC(CC(=O)O)c2ccccc2)c(O)c2ccc(Oc3ccccc3)cc12 (centres unmarked) [Compound 91, 3-[(1-Cyano-4-hydroxy-7-phenoxy-isoquinoline-3-carbonyl)-amino]-3-phenyl-propionic acid] | 1.91 µM | 6 | 11.3 µM |  |  |  | 
CC(C)(CNC(=O)c1nc(C#N)c2cc(Oc3ccccc3F)ccc2c1O)C(=O)O [Compound 41, 3{-[1-Cyano-7-(2-fluoro-phenoxy)-4-hydroxy-isoquinoline-3-carbonyl]-amino}-2,2-dimethyl-propionic acid] | 0.55 µM | 17 | 9.56 µM |  |  |  | 
CCC(CNC(=O)c1nc(C#N)c2cc(Oc3ccccc3)ccc2c1O)C(=O)O (centres unmarked) [Compound 57, 2-((1-Cyano-4-hydroxy-7-phenoxyisoquinoline-3-carboxamido)methyl)butanoic acid] | 0.54 µM | 9 | 5.1 µM |  |  |  | 
O=C(O)CCCCNC(=O)c1nc(-c2cncc(F)c2)c2cc(Oc3ccccc3)ccc2c1O [Compound 147, 5-{[1-(5-Fluoro-pyridin-3-yl)-4-hydroxy-7-phenoxy-isoquinoline-3-carbonyl]-amino}-pentanoic acid] | 5.09 µM | 15 | 77 µM |  |  |  | 
N#Cc1nc(C(=O)NCC(CC(=O)O)c2ccc(Cl)cc2)c(O)c2ccc(Oc3ccccc3)cc12 (centres unmarked) [Compound 34, 3-(4-Chloro-phenyl)-4-[(1-cyano-4-hydroxy-7-phenoxy-isoquinoline-3-carbonyl)-amino]-butyric acid] | 2.55 µM | 12 | 30.9 µM |  |  |  | 
O=C(O)CCNC(=O)c1ncc2cc(NC(=O)c3ccc(F)cc3)ccc2c1O [Compound 118, 3-{[7-(4-Fluoro-benzoylamino)-4-hydroxy-isoquinoline-3-carbonyl]-amino}-propionic acid] | 6.45 µM | 18 | 113 µM |  |  |  | 
CC(C)(CNC(=O)c1nc(C#N)c2cc(Oc3cccc(F)c3)ccc2c1O)C(=O)O [Compound 42, 3-(1-Cyano-7-(3-fluorophenoxy)-4-hydroxyisoquinoline-3-carboxamido)-2,2-dimethylpropanoic acid] | 0.36 µM | 11 | 3.95 µM |  |  |  | 
Cc1cccc(C)c1Oc1ccc2c(C#N)nc(C(=O)NCCCCC(=O)O)c(O)c2c1 [Compound 111, 5-{[1-Cyano-6-(2,6-dimethyl-phenoxy)-4-hydroxy-isoquinoline-3-carbonyl]-amino}-pentanoic acid] | 10.5 µM | 11 | 112 µM |  |  |  | 

More lines, now with the values ahead:

IC50 [1, 3] | PHD2/PHD1 [1, 4] | IC50 [2, 5] | IC50 [1, 6] [µM] | PHD2/PHD1 avg. ([1]; Table 1) | IC50 [2, 7] [µM] | PHD2/PHD1 ([1]; Table 2 comparative data, IC50 PHD2/IC50 PHD1) | Compound
3.02 µM | 17 | 52.7 µM |  |  |  |  | O=C(NCC[C@H](O)C(=O)O)c1ncc2cc(Oc3ccccc3)ccc2c1O [Compound 7, 2-(S)-Hydroxy-4-[(4-hydroxy-7-phenoxy-isoquinoline-3-carbonyl)-amino]-butyric acid]
11.6 µM | 10 | 119 µM |  |  |  |  | CC(C)(CCNC(=O)c1ncc2cc(Oc3ccccc3)ccc2c1O)C(=O)O [Compound 8, 4-[(4-Hydroxy-7-phenoxy-isoquinoline-3-carbonyl)-amino]-2,2-dimethyl-butyric acid]
0.41 µM | 11 | 4.65 µM |  |  |  |  | CC(C)(CNC(=O)c1nc(C#N)c2cc(Oc3ccc(F)cc3)ccc2c1O)C(=O)O [Compound 101, 3{-[1-Cyano-7-(4-fluoro-phenoxy)-4-hydroxy-isoquinoline-3-carbonyl]-amino}-2,2-dimethyl-propionic acid]
0.14 µM | 5 | 0.71 µM |  |  |  |  | N#Cc1nc(C(=O)NCCCC(=O)O)c(O)c2ccc(Oc3ccccc3)cc12 [Compound 80, 4-[(1-Cyano-4-hydroxy-7-phenoxy-isoquinoline-3-carbonyl)-amino]-butyric acid]
0.27 µM | 14 | 3.73 µM |  |  |  |  | N#Cc1nc(C(=O)NCCCCC(=O)O)c(O)c2ccc(Oc3ccc(F)cc3Cl)cc12 [Compound 98, 5-{[7-(2-Chloro-4-fluoro-phenoxy)-1-cyano-4-hydroxy-isoquinoline-3-carbonyl]-amino}-pentanoic acid]
4.91 µM | 8 | 39.6 µM |  |  |  |  | O=C(O)CCNC(=O)c1ncc2cc(NC(=O)NC3CCCCC3)ccc2c1O [Compound 130, 3-{[7-(3-Cyclohexyl-ureido)-4-hydroxy-isoquinoline-3-carbonyl]-amino}-propionic acid]
1.3 µM | 6 | 7.43 µM |  |  |  |  | N#Cc1nc(C(=O)NCCC(=O)O)c(O)c2ccc(Oc3ccc(F)cc3Cl)cc12 [Compound 97, 3-{[7-(2-Chloro-4-fluoro-phenoxy)-1-cyano-4-hydroxy-isoquinoline-3-carbonyl]-amino}-propionic acid]
6.23 µM and 4.8 µM |  | 26.5 µM and 80.5 µM | 5.52 | 10.5 avg. | 53.5 |  | CC(C)CC(CC(=O)O)NC(=O)c1nc(C#N)c2cc(Oc3ccccc3)ccc2c1O (centres unmarked) [Compound 66, 3-[(1-Cyano-4-hydroxy-7-phenoxy-isoquinoline-3-carbonyl)-amino]-5-methyl-hexanoic acid]
1 µM and 1.08 µM |  | 3.65 µM and 10.8 µM | 1.04 | 6.8 avg | 7.23 |  | COc1ccccc1Oc1ccc2c(O)c(C(=O)NCC(C)(C)C(=O)O)nc(C#N)c2c1 [Compound 60, 3{-[1-Cyano-4-hydroxy-7-(2-methoxy-phenoxy)-isoquinoline-3-carbonyl]-amino}-2,2-dimethyl-propionic acid]
2.82 µM | 10 | 26.9 µM |  |  |  |  | CC[C@H](CC(=O)O)NC(=O)c1nc(C#N)c2cc(Oc3ccccc3)ccc2c1O [Compound 63, 3-(R)-[(1-Cyano-4-hydroxy-7-phenoxy-isoquinoline-3-carbonyl)-amino]-pentanoic acid]
